Test results as given in patent publication US20060069132A1, “Azolecarboxamide herbicides” (priority 2004, published 2006).

Key:
johnsongrass = assay: Test C pre-/postemergence herbicide test; assay type: in vivo, Sorghum halepense; settings: for Plant response rating, Johnsongrass: preemergence
Outline: (§1)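 Visual ratings on a 0–100 scale (100 = complete control) made versus untreated controls after 12 to 14 greenhouse days. Test chemicals, formulated in surfactant-containing non-phytotoxic solvent, applied preemergence to planted seeds or postemergence to 1- to 4-leaf plants (2 to 18 cm).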

soybean = assay: Test C pre-/postemergence herbicide test; assay type: in vivo, Glycine max; settings: for Plant response rating, Soybean: preemergence
Outline: as §1

velvetleaf = assay: Test C pre-/postemergence herbicide test; assay type: in vivo, Abutilon theophrasti; settings: for Plant response rating, Velvetleaf: preemergence
Outline: as §1

goosegrass = assay: Test C pre-/postemergence herbicide test; assay type: in vivo, Eleusine indica; settings: for Plant response rating, Goosegrass: preemergence
Outline: as §1

kochia = assay: Test C pre-/postemergence herbicide test; assay type: in vivo, Kochia scoparia; settings: for Plant response rating, Kochia: preemergence
Outline: as §1

Surinam grass = assay: Test C pre-/postemergence herbicide test; assay type: in vivo, Urochloa decumbens; settings: for Plant response rating, Surinam Grass: preemergence
Outline: as §1

pigweed = assay: Test C pre-/postemergence herbicide test; assay type: in vivo, Amaranthus retroflexus; settings: for Plant response rating, Pigweed: preemergence
Outline: as §1

large crabgrass = assay: Test C pre-/postemergence herbicide test; assay type: in vivo, Digitaria sanguinalis; settings: for Plant response rating, Crabgrass, Large: preemergence
Outline: as §1

rice = assay: Test B pre-/postemergence herbicide test; assay type: in vivo, Oryza sativa; settings: preemergence; for Rice plant response rating (0 to 100 scale): 125 g ai/ha; for Plant response rating, Rice: 500 g ai/ha
Outline: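 Plants compared with untreated controls 13–15 days post-treatment and given a visual 0–100 injury score. Applications: preemergence to seeds; postemergence at 1- to 4-leaf (2–18 cm); paddy species flooded, 2-leaf stage. Vehicle non-phytotoxic, surfactant included.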

[1] = 125 g ai/ha, scale 0 (no effect) to 100 (complete control), visual, 12 to 14 days
[2] = Preemergence, 500 g ai/ha, scale 0 to 100, 0 no effect, 100 complete control
[3] = 0 = no effect, 100 = complete control
[4] = 500 g ai/ha, scale 0 to 100 (0 no effect, 100 complete control), visual, 12 to 14 days

Row | SMILES | Plant response rating, Johnsongrass (johnsongrass; 62 g ai/ha, scale 0 to 100) | Plant response rating, Johnsongrass (johnsongrass; [1]) | Plant response rating, Johnsongrass (johnsongrass; 250 g ai/ha, scale 0-100) | Plant response rating, Soybean (soybean; 62 g ai/ha, scale 0 to 100) | Plant response rating, Soybean (soybean; [1]) | Plant response rating, Soybean (soybean; 250 g ai/ha, scale 0-100) | Plant response rating, Velvetleaf (velvetleaf; 62 g ai/ha, scale 0 to 100) | Plant response rating, Velvetleaf (velvetleaf; [1]) | Plant response rating, Velvetleaf (velvetleaf; 250 g ai/ha, scale 0-100) | Plant response rating, Goosegrass (goosegrass; 62 g ai/ha, scale 0 to 100) | Plant response rating, Goosegrass (goosegrass; [1]) | Plant response rating, Goosegrass (goosegrass; 250 g ai/ha, scale 0-100) | Plant response rating, Kochia (kochia; [1]) | Plant response rating, Kochia (kochia; 250 g ai/ha, scale 0-100) | Plant response rating, Surinam Grass (Surinam grass; 62 g ai/ha, scale 0 to 100) | Plant response rating, Surinam Grass (Surinam grass; [1]) | Plant response rating, Surinam Grass (Surinam grass; 250 g ai/ha, scale 0-100) | Plant response rating, Pigweed (pigweed; 62 g ai/ha, scale 0 to 100) | Plant response rating, Pigweed (pigweed; [1]) | Plant response rating, Pigweed (pigweed; 250 g ai/ha, scale 0-100) | other results
1 | CC(=NO)c1cccc(NC(=O)c2sc(C(C)(C)C)nc2C)c1 [Compound 195] | 0 | 0 | 0 | 0 | 0 | 0 | 0 | 50 | 55 | 100 | 100 | 100 | 0 | 10 | 0 | 0 | 85 | 55 | 60 | 90 | Johnsongrass plant response rating (johnsongrass; [2]): 0; Soybean plant response rating (soybean; [2]): 0; Velvetleaf plant response rating (velvetleaf; [2]): 100; Goosegrass plant response rating (goosegrass; [2]): 100; Plant response rating, Kochia (kochia; 62 g ai/ha, scale 0 to 100): 0; Kochia plant response rating (kochia; [2]): 85; Surinam Grass plant response rating (Surinam grass; [2]): 85; Pigweed plant response rating (pigweed; [2]): 90; Plant response rating, Crabgrass, Large (large crabgrass; 62 g ai/ha, scale 0 to 100): 0; Plant response rating, Crabgrass, Large (large crabgrass; [1]): 0; Plant response rating, Crabgrass, Large (large crabgrass; 250 g ai/ha, scale 0-100): 5; Crabgrass, Large plant response rating (large crabgrass; [2]): 70; Rice plant response rating (0 to 100 scale) (rice; [3]): 10; Plant response rating, Rice (rice; visual rating 0-100, 0 no effect, 100 complete control): 20
2 | CCNC(=O)c1cccc(NC(=O)c2sc(C(C)(C)C)nc2CC)n1 [Compound 213] | 0 | 55 | 60 | 0 | 0 | 0 | 0 | 0 | 0 | 0 | 60 | 80 | 85 | 100 | 0 | 0 | 20 | 80 | 100 | 100 | Plant response rating, Johnsongrass (johnsongrass; [4]): 80; Plant response rating, Soybean (soybean; [4]): 0; Plant response rating, Velvetleaf (velvetleaf; [4]): 0; Plant response rating, Goosegrass (goosegrass; [4]): 90; Plant response rating, Kochia (kochia; [4]): 100; Plant response rating, Surinam Grass (Surinam grass; [4]): 60; Plant response rating, Pigweed (pigweed; [4]): 100; Plant response rating, Crabgrass, Large (large crabgrass; 62 g ai/ha, scale 0 to 100): 0; Plant response rating, Crabgrass, Large (large crabgrass; [1]): 50; Plant response rating, Crabgrass, Large (large crabgrass; 250 g ai/ha, scale 0-100): 100; Plant response rating, Crabgrass, Large (large crabgrass; [4]): 100; Rice plant response rating (0 to 100 scale) (rice; [3]): 0; Plant response rating, Rice (rice; visual rating, 0 = no effect, 100 = complete control): 40
